Experimental data taken from patent publication US20090181898A1, “ABUSE-RESISTANT A[…]” (SHIRE LLC, priority 2002, published 2009).
Where “and” joins values, the source holds several entries; their conditions need not be identical. Equal entries are not always repeated. Marks after values point to notes of the source that are not given here.

How the values were obtained:
[1] = Oral PK study at a high dose (60 mg/kg), 8 h time course; conditions: rat; for Mean plasma amphetamine concentration: high dose 60 mg/kg
[2] = Oral pharmacokinetics of L-lysine-d-amphetamine diHCl compared to d-amphetamine sulfate (ELISA); conditions: rat; for Plasma concentrations of d-amphetamine, individual animals: 3 mg/kg d-amphetamine base, Rat #1-#4; for Mean plasma d-amphetamine concentration: n=4
[3] = Pharmacokinetics of d-amphetamine in male and female beagle dogs after oral administration, […]; conditions: oral […] d-amphetamine base

For d-amphetamine, the AUC of d-amphetamine ([1]; 60 mg/kg) was 13420 ng·h/mL, the “Animals that died or were sacrificed due to acute symptoms of toxicity” value ([1]; 60 mg/kg) was 8 of 12 and the Cmax of d-amphetamine ([1]; 60 mg/kg) was 3623 ng/mL. For the same substance, the “Mean Peak of d-amphetamine” value ([1]; 60 mg/kg) was 2973 ng/mL, the “Mean Peak, Percent d-Amp” value ([1]; 60 mg/kg) was 100% and the “Mean plasma amphetamine concentration” value ([1]; 0.5 h) was 2643 ng/mL. For the same substance, the “Mean plasma amphetamine concentration” value ([1]; 1 h) was 2828 ng/mL, the “Mean plasma amphetamine concentration” value ([1]; 3 h (d-amphetamine n = 2)) was 2944* ng/ml and the “Mean plasma amphetamine concentration” value ([1]; 5 h (d-amphetamine n = 2)) was 153* ng/ml. For the same substance, the “Mean plasma amphetamine concentration” value ([1]; 8 h (d-amphetamine n = 1)) was 1309** ng/ml, the “AUC (0-8 h) of d-amphetamine” value ([2]; 3 mg/kg) was 341 ± 35 ng·h/mL and the Cmax of d-amphetamine ([2]; 3 mg/kg) was 111 ± 27 ng/mL. For the same substance, the “Mean Peak of d-amphetamine” value ([2]; 3 mg/kg) was 129 ng/mL, the “Mean Peak, Percent Amphetamine” value ([2]; 3 mg/kg) was 100% and the “Plasma concentrations of d-amphetamine, individual animals” value (from here on “Plasma concentrations of d-amphetamine”) ([2]; 0.5 h) was 144 ng/mL and 157 ng/mL and 101 ng/mL and 115 ng/mL. The “Plasma concentrations of d-amphetamine” value ([2]; 1 h) was 152 ng/ml and 78 ng/ml (2×) and 115 ng/ml, the “Plasma concentrations of d-amphetamine” value ([2]; 3 h) was 34 ng/mL and 45 ng/mL and 72 ng/mL and 38 ng/mL and the “Plasma concentrations of d-amphetamine” value ([2]; 5 h) was 20 ng/mL and 14 ng/mL and 12 ng/mL and 15 ng/mL. The “Plasma concentrations of d-amphetamine” value ([2]; 8 h) was 3 ng/ml (2×) and 2 ng/ml (2×), the “Mean plasma d-amphetamine concentration” value ([2]; 3 mg/kg, 0.5 h) was 129 ng/mL and the “Mean plasma d-amphetamine concentration” value ([2]; 3 mg/kg, 1 h) was 106 ng/mL. The “Mean plasma d-amphetamine concentration” value ([2]; 3 mg/kg, 3 h) was 47 ng/mL, the “Mean plasma d-amphetamine concentration” value ([2]; 3 mg/kg, 5 h) was 15 ng/mL and the “Mean plasma d-amphetamine concentration” value ([2]; 3 mg/kg, 8 h) was 2 ng/mL. For the same substance, the Tmax of d-amphetamine ([3]; Females) was 1 h, the “Tmax of d-amphetamine, Percent (of Amp)” value ([3]; Females) was 100% and the Tmax of d-amphetamine ([3]; Males) was 1 h. The “Tmax of d-amphetamine, Percent (of Amp)” value ([3]; Males) was 100%.
